Experimental data from patent US8710097B2, “Flavonoid dimers and methods of making and using such” (The Hong Kong Polytechnic University, priority 2006, dated 2014).
Several values for one entry are separate records, joined by “and”; a condition that tells them apart may be missing. Equal entries are not always repeated.

What was measured:
[1] = system: pentamidine-resistant L. enriettii LePentR50 promastigotes; experiment: microbe, parasite or virus in culture
[2] = system: tested MDR cell lines (drug resistant breast cancer and leukemia cells); assay type: cell-based
Source text: Cell proliferation assay.

[3] = system: P388/ADR cells; experiment: Doxorubicin accumulation; assay type: cell-based, murine; conditions: 10 μM doxorubicin, 2 h, FIG. 11A
[4] = system: SSG-resistant L. donovani Ld39 promastigotes; experiment: microbe, parasite or virus in culture; assay type: cell-based, Leishmania donovani
[5] = system: wild type L. donovani LdAG83 promastigotes; experiment: Leishmania cell viability (MTS) assay; assay type: cell-based, Leishmania donovani
[6] = system: LeMDR1 overexpressed L. enriettii (LeV160); experiment: Leishmania cell viability (MTS) assay; assay type: cell-based, Leishmania enriettii; conditions: LeV160
Source text: (§1) Cell lines and Cell Culture.

[7] = system: LeMDR1 knockout (LeMDR1 −/−) L. enriettii; experiment: Leishmania cell viability (MTS) assay; assay type: cell-based, Leishmania enriettii; conditions: LeMDR1 −/−
Source text: as §1

[8] = system: MDA435/LCC6 MDR cells; experiment: Doxorubicin accumulation; assay type: cell-based, human
Description: Doxorubicin accumulation. 2.5 ml (10^5 cells/ml) MDA435/LCC6 (both parent and MDR subtype) cells were seeded in each well of 6-well plates. At confluence, culture medium was removed. 2 ml of fresh DMEM with modulators was added and cells were incubated for 30 min at 37° C. Doxorubicin (final concentration of 20 μM) was then added and incubated for 2 h at 37° C. The cells were then harvested by trypsinization.
For P388 (both parent and MDR subtype) cells, 1 ml (10^5 cells) confluent cells were aliquot into Eppendorf tube and pre-incubated with flavone dimers for 30 min at 37° C. Doxorubicin (final concentration of 10 μM) was then added and incubated for 2 h at 37° C. at a final concentration of 10 μM. The cell pellets were washed 3 times with cold PBS by using an Eppendorf micro-centrifuge and lysed with 0.3N HCL in 50% ethanol, and sonicated for 30s. After centrifugation at 10000 rpm/min for 3 min, the supernatant was saved. The fluorescence of doxorubicin was measured using a spectrofluorometer (λexcite=470 nm, λemit=585 nm).
In order to understand whether the modulating activity for various anticancer drugs by different dimers is due to their different ability to modulate P-gp mediated drug efflux, their effects on the accumulation of doxorubicin in both MDA435/LCC6 sensitive and resistant cells were investigated. Doxorubicin was a fluorescent drug substrate of P-gp and was used in this experiment to monitor the P-gp mediated drug efflux. Accumulation of doxorubicin in these cells was determined in the presence or absence of apigenin dimers (10 μM) and monomer (20 μM). Verapamil was used as a positive control.

For `O=c1cc(-c2ccc(OCCOCCOCCOCCOc3ccc(-c4cc(=O)c5c(O)cc(O)cc5o4)cc3)cc2)oc2cc(O)cc(O)c12` [Compound 9d, 1,13-Bis[4′-((5,7-dihydroxy)-4H-chromen-4-on-2-yl)phenyl]-1,4,7,10,13-pentaoxamidecane], the “cytotoxicity under accumulation conditions” value ([1]; LePentR50, 60 μM 9d, 3 hours, data not shown) was “did not result in any cytotoxicity”, the pentamidine sensitization ([1]; LePentR50, FIG. 18A) was roughly 3.7 fold and the “toxicity of modulator alone” value ([1]; LePentR50, up to 6 μM) was “No toxicity”. For the same compound, the EC50 ([1]; read-out: EC50 (concentration resulting in 50% survival of LePentR50 at 60 μg/ml pentamidine), co-treatment with 60 μg/ml pentamidine, FIG. 15) was roughly 0.94 µM, the IC50 ([1]; read-out: IC50(μM) of synthetic flavonoid, LePentR50, cytotoxicity of compound alone, 72 hrs) was greater than 200 µM and the “increase of cytotoxicity of anticancer drugs” value [2] was 6-50 RF. The “increase of doxorubicin accumulation, folds of control” value [3] was “about 2 folds”, the “reduction of SSG resistance level” value ([4]; Ld39, 4 μM, FIGS. 17A and 17B) was “back to the level of the sensitive strain” and the SSG sensitization ([4]; Ld39, FIG. 18B) was 3.9 fold. For the same compound, the IC50 ([4]; cytotoxicity of compound alone, 72 hrs, read-out: IC50(μM) of synthetic flavonoid, Ld39) was 10 ± 0.9 µM, the “modulating effect on SSG sensitivity” value ([5]; LdAG83, up to 6 μM, FIG. 17C) was “did not have any modulating effect” and the “modulatory effect on SSG sensitivity” value ([5]; SSG-sensitive wild type LdAG83, FIG. 14D) was “no modulatory effect”. The IC50 ([5]; cytotoxicity of compound alone, 72 hrs, read-out: IC50(μM) of synthetic flavonoid, LdAG83) was 7 ± 0.4 µM, the “decrease of IC50 of pentamidine” value [6] was roughly 1.9 fold and the pentamidine sensitization [7] was 4.1 fold. The “doxorubicin accumulation relative to 9d-treated LCC6 cells” value ([8]; LCC6 MDR, 10 μM 9d) was 97%, the “enhancement of doxorubicin accumulation, folds of control” value ([8]; LCC6 MDR, apigenin dimers 10 μM, 20 μM doxorubicin, 2 h) was 5.8 folds and 4 folds and the “intracellular doxorubicin concentration, % of the LCC6” value ([8]; MDA435/LCC6 MDR, 10 μM 9d, FIG. 7B) was 88%.
